Data taken from patent publication US20260258022A1, “NOVEL HETEROCYCLIC-SUBSTITUTED PYRIMIDINE DERIVATIVE EXHIBITING CANCER CELL GROWTH INHIBITORY EFFECT, AND PHARMACEUTICAL COMPOSITION CONTAINING SAME” (ONCOBIX CO., LTD., priority 2021, published 2026).

Experiments:
ALK = ALK (Homo sapiens, UniProt Q9UM73); assay: Kinase inhibitory activity, [33P]-ATP filter assay, ALK; assay type: biochemical; conditions: wild-type ALK kinase, scintillation counting
Method: (§1) For the compounds of Examples 1 to 8 above, the inhibitory activity against ALK, ALK mutation (ALK(G1202R)), and […] (ALK(L1196M)) was measured, and the results are shown in Table 1 below. […] Crizotinib […] was used as a control drug. • 1. Each kinase was incubated under 8 mM MOPS, pH 7.0, 0.2 mM EDTA, 250 μM KKKGQEEEYVFIE, 1 mM sodium orthovanadate, 5 mM sodium-6-glycerophosphate, 10 mM Magnesium acetate, [^33P]-ATP. • 2. The reaction proceeded by adding the evaluation compound (DMSO solution) and Mg/ATP. • 3. After about 40 minutes at room temperature, the reaction was terminated by adding 10 μL of 0.5% phosphoric acid. • 4. The reaction solution was divided into 0.5% 10 μL and spotted on a P30 filtermat. • 5. It was washed four times with 0.425% phosphoric acid for about 4 minutes. After washing once with methanol, it was dried and analyzed by scintillation counting to measure the IC50 value.

ALK(G1202R) = ALK(G1202R) (Homo sapiens, UniProt Q9UM73, G1202R); assay: Kinase inhibitory activity, [33P]-ATP filter assay, ALK(G1202R); assay type: biochemical; conditions: ALK point mutant kinase, scintillation counting
ALK(G1202R), sequence (Q9UM73 19-1620 G1202R): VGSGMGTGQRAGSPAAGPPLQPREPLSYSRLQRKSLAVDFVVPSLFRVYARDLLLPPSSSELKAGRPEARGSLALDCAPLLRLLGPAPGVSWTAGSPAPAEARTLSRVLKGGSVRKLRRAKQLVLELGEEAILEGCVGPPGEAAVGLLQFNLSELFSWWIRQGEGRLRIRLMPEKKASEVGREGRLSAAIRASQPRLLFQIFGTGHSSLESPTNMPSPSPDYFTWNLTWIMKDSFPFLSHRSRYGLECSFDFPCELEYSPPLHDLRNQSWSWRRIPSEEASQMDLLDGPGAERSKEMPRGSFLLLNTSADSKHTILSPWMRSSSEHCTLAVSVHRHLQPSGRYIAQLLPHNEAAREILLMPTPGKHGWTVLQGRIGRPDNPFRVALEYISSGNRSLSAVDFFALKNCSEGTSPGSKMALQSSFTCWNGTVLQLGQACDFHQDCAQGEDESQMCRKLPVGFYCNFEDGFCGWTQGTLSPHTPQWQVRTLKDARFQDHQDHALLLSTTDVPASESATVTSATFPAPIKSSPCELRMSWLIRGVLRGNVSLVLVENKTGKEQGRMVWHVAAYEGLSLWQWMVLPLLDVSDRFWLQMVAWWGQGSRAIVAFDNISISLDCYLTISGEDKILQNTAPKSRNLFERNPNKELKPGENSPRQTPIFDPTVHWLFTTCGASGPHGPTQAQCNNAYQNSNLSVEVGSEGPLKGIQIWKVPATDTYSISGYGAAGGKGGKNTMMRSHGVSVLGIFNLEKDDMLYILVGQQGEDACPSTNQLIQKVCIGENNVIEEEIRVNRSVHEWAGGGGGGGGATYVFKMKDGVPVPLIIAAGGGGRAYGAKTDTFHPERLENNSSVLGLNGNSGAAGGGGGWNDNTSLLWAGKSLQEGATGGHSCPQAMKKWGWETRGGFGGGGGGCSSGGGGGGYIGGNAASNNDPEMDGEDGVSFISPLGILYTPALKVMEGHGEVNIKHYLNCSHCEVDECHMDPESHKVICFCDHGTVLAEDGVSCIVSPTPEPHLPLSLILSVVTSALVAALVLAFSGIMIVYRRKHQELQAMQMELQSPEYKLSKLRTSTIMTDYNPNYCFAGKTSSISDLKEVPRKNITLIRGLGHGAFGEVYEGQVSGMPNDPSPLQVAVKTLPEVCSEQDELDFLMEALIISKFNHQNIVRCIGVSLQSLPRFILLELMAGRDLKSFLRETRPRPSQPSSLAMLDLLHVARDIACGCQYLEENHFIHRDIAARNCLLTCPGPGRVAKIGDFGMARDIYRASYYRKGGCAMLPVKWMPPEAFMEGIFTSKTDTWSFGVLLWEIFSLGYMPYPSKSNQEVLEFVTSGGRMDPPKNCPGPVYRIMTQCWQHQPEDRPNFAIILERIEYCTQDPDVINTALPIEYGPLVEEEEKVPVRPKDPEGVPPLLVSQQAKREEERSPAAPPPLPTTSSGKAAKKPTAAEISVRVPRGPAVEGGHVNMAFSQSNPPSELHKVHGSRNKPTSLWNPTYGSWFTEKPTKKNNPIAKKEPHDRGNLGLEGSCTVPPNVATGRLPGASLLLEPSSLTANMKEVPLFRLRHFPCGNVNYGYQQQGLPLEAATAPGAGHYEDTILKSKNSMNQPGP
Method: as §1

ALK(L1196M) = ALK(L1196M) (Homo sapiens, UniProt Q9UM73, L1196M); assay: Kinase inhibitory activity, [33P]-ATP filter assay, ALK(L1196M); assay type: biochemical; conditions: ALK point mutant kinase, scintillation counting
ALK(L1196M), sequence (Q9UM73 19-1620 L1196M): as the sequence (Q9UM73 19-1620 G1202R) above, with L1178M, R1184G counted along it
Method: as §1

H3122 (EML4-ALK v1) = assay: Cancer cell growth inhibition, MTT assay, H3122; assay type: cell-based; conditions: Homo sapiens, NCI-H3122, 72 hours incubation
Method: (§2) The growth inhibitory effects of the compounds in Examples 3, 7, and 8 above on ALK mutant cancer cell lines were measured. Anticancer efficacy activity was measured using H3122 (EML4-ALK v1) and H2228 (EML4-ALK v3) as ALK mutant cell lines by the following method.
(§3) 2×10^5 cells were seeded in a 96-well plate. 24 hours later, each of the compounds in Examples 3, 7, and 8 was treated in a dose-dependent manner, incubated for 72 hours, reacted with 15 uL MTT reagent for 4 hours, and then 100 uL 10% SDS was added thereto and incubated for 24 hours. The change in final OD was read at 595 nm. To analyze the MTT results, IC50 values were measured using prism software.
(§4) APG-2449 was used as a control drug.

H2228 (EML4-ALK v3) = assay: Cancer cell growth inhibition, MTT assay, H2228; assay type: cell-based; conditions: Homo sapiens, NCI-H2228, 72 hours incubation
Method: as §2, §3, §4

ALK, sequence (Q9UM73 19-1620): as the sequence (Q9UM73 19-1620 G1202R) above, with R1184G counted along it

SMILES | IC50 (ALK) | IC50 (ALK(G1202R)) | IC50 (ALK(L1196M)) | IC50 (H3122 (EML4-ALK v1)) | IC50 (H2228 (EML4-ALK v3))
Cc1cc(Nc2ncc(Cl)c(Nc3ccccc3N(C)S(C)(=O)=O)n2)c(OCC(F)(F)F)cc1C1=CCN(C2CCOCC2)CC1 [Example 7, N-(2-((5-chloro-2-((5-methyl-4-(1-(tetrahydro-2H-pyran-4-yl)-1,2,3,6-tetrahydropyridin-4-yl)-2-(2,2,2-trifluoroethoxy)phenyl)amino)pyrimidin-4-yl)amino)phenyl)-N-methylmethanesulfonamide] | 0.5 nM | 10.5 nM | 0.05 nM | 39.1 nM | 16.8 nM
Cc1cc(Nc2ncc(Cl)c(Nc3ccccc3N(C3CC3)S(C)(=O)=O)n2)c(OC(C)C)cc1C1=CCN(C2CCOCC2)CC1 [Example 5, N-(2-((5-chloro-2-((2-isopropoxy-5-methyl-4-(1-(tetrahydro-2H-pyran-4-yl)-1,2,3,6-tetrahydropyridin-4-yl)phenyl)amino)pyrimidin-4-yl)amino)phenyl)-N-cyclopropylmethanesulfonamide] | 3.1 nM | 153 nM | 0.5 nM |  | 
Cc1cc(Nc2ncc(Cl)c(Nc3ccccc3N(C)S(C)(=O)=O)n2)c(OC(C)C)cc1C1=CCN(C2CCOCC2)CC1 [Example 1, N-(2-((5-chloro-2-((2-isopropoxy-5-methyl-4-(1-(tetrahydro-2H-pyran-4-yl)-1,2,3,6-tetrahydropyridin-4-yl)phenyl)amino)pyrimidin-4-yl)amino)phenyl)-N-methylmethanesulfonamide] | 1.1 nM | 17.8 nM | 0.2 nM |  | 
Cc1cc(Nc2ncc(Cl)c(Nc3ccccc3N(C)S(=O)(=O)C(C)C)n2)c(OC(C)C)cc1C1=CCN(C2CCOCC2)CC1 [Example 4, N-(2-((5-chloro-2-((2-isopropoxy-5-methyl-4-(1-(tetrahydro-2H-pyran-4-yl)-1,2,3,6-tetrahydropyridin-4-yl)phenyl)amino)pyrimidin-4-yl)amino)phenyl)-N-methylpropane-2-sulfonamide] | 0.9 nM | 161 nM | 0.3 nM |  | 
Cc1cc(Nc2ncc(Cl)c(Nc3ccccc3N(C(C)C)S(C)(=O)=O)n2)c(OC(C)C)cc1C1=CCN(C2CCOCC2)CC1 [Example 6, N-(2-((5-chloro-2-((2-isopropoxy-5-methyl-4-(1-(tetrahydro-2H-pyran-4-yl)-1,2,3,6-tetrahydropyridin-4-yl)phenyl)amino)pyrimidin-4-yl)amino)phenyl)-N-isopropylmethanesulfonamide] | 0.6 nM | 254 nM | 6.7 nM |  | 
Cc1cc(Nc2ncc(Cl)c(Nc3ccccc3S(=O)(=O)C(C)C)n2)c(OC(C)C)cc1C1=CCN(C2CCOCC2)CC1 [APG-2449, reference compound] | 0.8 nM | > 1000 nM | 0.9 nM | 87.8 nM | 62.9 nM
Cc1cc(Nc2ncc(Cl)c(Nc3ccccc3NS(C)(=O)=O)n2)c(OC(C)C)cc1C1=CCN(C2CCOCC2)CC1 [Example 2, N-(2-((5-chloro-2-((2-isopropoxy-5-methyl-4-(1-(tetrahydro-2H-pyran-4-yl)-1,2,3,6-tetrahydropyridin-4-yl)phenyl)amino)pyrimidin-4-yl)amino)phenyl)methanesulfonamide] | 1.8 nM | 25.8 nM | 0.6 nM |  | 
Cc1cc(Nc2ncc(Cl)c(Nc3ccccc3N(C)S(N)(=O)=O)n2)c(OC(C)C)cc1C1=CCN(C2CCOCC2)CC1 [Example 8] | 0.6 nM | 17.8 nM | 0.07 nM | 22.1 nM | 20.8 nM
Cc1cc(Nc2ncc(Cl)c(Nc3ccccc3N(C)S(=O)(=O)C3CC3)n2)c(OC(C)C)cc1C1=CCN(C2CCOCC2)CC1 [Example 3, N-(2-((5-chloro-2-((2-isopropoxy-5-methyl-4-(1-(tetrahydro-2H-pyran-4-yl)-1,2,3,6-tetrahydropyridin-4-yl)phenyl)amino)pyrimidin-4-yl)amino)phenyl)-N-methylcyclopropanesulfonamide] | 0.6 nM | 0.7 nM | 0.05 nM | 31.9 nM | 43.1 nM
